Source: article PMC4147378 (Bioorganic & medicinal chemistry, 2014)
Entries after “also recorded” stand apart in the source; their conditions may differ.

Assays:
GST-hFXR-LBD = biological target: T1, GST-hFXR-LBD (Homo sapiens, UniProt Q96RI1); test: FXR TR-FRET binding assay; conditions: Table 3; ratio fits the TR-FRET binding IC50
T1 sequence (Q96RI1 262-486 limits assumed): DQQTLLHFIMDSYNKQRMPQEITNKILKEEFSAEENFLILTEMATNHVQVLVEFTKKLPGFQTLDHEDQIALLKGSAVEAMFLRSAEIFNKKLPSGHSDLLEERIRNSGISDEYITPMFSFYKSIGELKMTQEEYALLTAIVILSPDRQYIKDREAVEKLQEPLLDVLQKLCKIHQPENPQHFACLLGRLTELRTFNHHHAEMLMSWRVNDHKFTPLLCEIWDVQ

FXR [1] = biological target: T2, FXR (Homo sapiens, UniProt Q96RI1); test: GeneBLAzer FXR cell-based antagonistic; conditions: data not shown
T2 sequence (Q96RI1 262-486 limits assumed): T1 sequence (Q96RI1 262-486 limits assumed)

FXR [2] = biological target: T2, FXR; test: GeneBLAzer FXR cell-based agonistic; conditions: compound alone, without GW4064; data not shown
[3] = test system: GeneBLAzer FXR-UAS-bla HEK 293T cells; test: Cytotoxicity assay in GeneBLAzer FXR cells; format: cell-based, human

Compound | activity against FXR at 1 µM (FXR [1]) | other results
Cc1ccc(-c2nn(CC3CC3)cc2C(=O)Nc2ccc(C)c(S(=O)(=O)N3CCOCC3)c2)cc1 [Compound 4i, 1-(Cyclopropylmethyl)-N-(4-methyl-3-(morpholinosulfonyl)phenyl)-3-(p-tolyl)-1H-pyrazole-4-carboxamide] | – | fold decreased activity for FXR as compared to E16 (GST-hFXR-LBD): 2 fold
COc1cccc(Cn2cc(C(=O)Nc3ccc(C)c(S(=O)(=O)N4CCOCC4)c3)c(-c3ccc(C)cc3)n2)c1 [Compound 4j, 1-(3-Methoxybenzyl)-N-(4-methyl-3-(morpholinosulfonyl)phenyl)-3-(p-tolyl)-1H-pyrazole-4-carboxamide] | – | FXR agonistic activity (FXR [2]): no detectable; also recorded: no FXR agonistic activity; also recorded: does not have any; cytotoxicity [3]: no detectable; also recorded: no cytotoxicity; also recorded: does not have any

Second part, led by results:

activity against FXR at 1 µM (FXR [1]) | Compound | other results
essentially inactive | COc1cccc(Cn2cc(C(=O)N(C)c3ccc(C)c(S(=O)(=O)N4CCOCC4)c3)c(C(C)C)n2)c1 [Compound 8b, 3-Isopropyl-1-(3-methoxybenzyl)-N-methyl-N-(4-methyl-3-(morpholinosulfonyl)phenyl)-1H-pyrazole-4-carboxamide] | –
essentially inactive | COc1cccc(Cn2cc(C(=O)N(C)c3ccc(C)c(S(=O)(=O)N4CCOCC4)c3)c(-c3cccc(OC)c3)n2)c1 [Compound 8c, 1-(3-Methoxybenzyl)-3-(3-methoxyphenyl)-N-methyl-N-(4-methyl-3-(morpholinosulfonyl)phenyl)-1H-pyrazole-4-carboxamide] | –
essentially inactive | Cc1ccc(-c2nn(C(C)C)cc2C(=O)N(C)c2ccc(C)c(S(=O)(=O)N3CCOCC3)c2)cc1 [Compound 8a, 1-Isopropyl-N-methyl-N-(4-methyl-3-(morpholinosulfonyl)phenyl)-3-(p-tolyl)-1H-pyrazole-4-carboxamide] | –
